In patent US7285556B2, “Thienopyrimidine-based inhibitors of the src family” (Board of Regents, The University of Texas Systems, priority 2000, dated 2007):
Read-outs that look alike come from different tables or passages of the source.

What was measured:
Recombinant human Src = target: T1, Recombinant human Src (Homo sapiens, UniProt P12931); test: Src tyrosine kinase activity, poly E4Y and 32P-ATP; assay type: biochemical
T1 construct: made in house; host or cells: baculovirus-insect cell system
T1 sequence (P12931 whole entry): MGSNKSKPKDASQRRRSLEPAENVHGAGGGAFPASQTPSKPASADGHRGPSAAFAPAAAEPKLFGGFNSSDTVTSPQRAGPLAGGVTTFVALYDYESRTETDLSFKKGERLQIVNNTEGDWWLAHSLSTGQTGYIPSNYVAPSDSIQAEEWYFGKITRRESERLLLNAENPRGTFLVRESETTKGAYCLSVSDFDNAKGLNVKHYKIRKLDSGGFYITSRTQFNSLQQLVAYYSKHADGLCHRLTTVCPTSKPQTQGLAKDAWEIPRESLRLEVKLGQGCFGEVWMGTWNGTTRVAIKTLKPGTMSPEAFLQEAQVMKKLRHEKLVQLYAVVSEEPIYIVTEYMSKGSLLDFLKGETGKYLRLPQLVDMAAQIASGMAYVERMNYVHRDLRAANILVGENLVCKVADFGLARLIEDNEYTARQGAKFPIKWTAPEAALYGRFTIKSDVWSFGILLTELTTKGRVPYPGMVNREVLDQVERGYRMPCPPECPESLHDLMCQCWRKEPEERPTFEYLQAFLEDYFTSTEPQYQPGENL
Method: (§1) Recombinant human Src was expressed using the baculovirus-insect cell system and purified as published (Budde et al., 1993 and 2000). Recombinant Csk and the FGF receptor (FGFr) were expressed as glutathione-S-transferase fusion proteins using the pGEX expression vector and E. coli, and purified as described (Sun & Budde, 1995).
(§2) The tyrosine kinase activity of Src, Csk and FGFr was determined using poly E4Y and ^32P-ATP. Briefly, enzymes were assayed in a reaction mixture consisting of 0.15 M EPPS-NaOH (pH 8.0) with 6 mM MgCl2, 0.2 mM γ^32P-ATP (0.2-0.4 mCi/μmol), 10% glycerol, 0.1% Triton X-100, and poly E4Y. Poly E4Y is a synthetic peptide whose phosphorylation is measured in this assay by the addition of the radioactively labeled phosphate from the ATP (Budde et al., 1995). […] When ATP was varied (0, 50, 100 and 250 μM), poly E4Y was kept constant at 150 μg/ml.

Csk = target: T2, Csk (Homo sapiens, UniProt P41240); test: Csk tyrosine kinase activity, poly E4Y and 32P-ATP; assay type: biochemical
T2 construct: GST (glutathione-S-transferase) (N); made in house; host or cells: E. coli (pGEX vector)
Method: as §1, §2

[1] = Table 2, read-out: Src IC50 (especially good inhibitors of Src)
[2] = read-out: IC50 (preferred compounds for treatment of Src family-related disease)
[3] = screening assay, 50 μg/ml poly E4Y, 0.2 mM 32P-ATP

Compound | IC50 (Csk; [3]) [µM] | also measured
COc1ccc(C=NNc2ncnc3c(C)csc23)cc1 [Compound 14, 4-Methoxybenzaldehyde(7-methylthieno[3,2-d]pyrimidin-4-yl)hydrazone] | > 168 | IC50 (Recombinant human Src; [1]): ≤ 2 µM; IC50 (Recombinant human Src; [2]): < 2 µM
COc1ccc(C=NNc2ncnc3c(C)c(C(O)c4cc(OC)c(OC)c(OC)c4)sc23)cc1O (stereo not shown) [Compound 482, 3-Hydroxy-4-methoxybenzaldehyde(6-(1-hydroxy-1-[3,4,5-trimethoxyphenyl])methyl-7-methylthieno[3,2-d]pyrimidin-4-yl)hydrazone] | – | IC50 (Csk; poly E4Y and 32P-ATP): > 97.9 µM
COc1cc(C(O)c2sc3c(NN=Cc4cccnc4)ncnc3c2C)cc(OC)c1OC (stereo not shown) [Compound 479, 3-Pyridinecarboxaldehyde(6-(1-hydroxy-1-[3,4,5-trimethoxyphenyl])methyl-7-methylthieno[3,2-d]pyrimidin-4-yl)hydrazone] | – | IC50 (Csk; poly E4Y and 32P-ATP): > 107 µM
Cc1csc2c(NN=Cc3nccs3)ncnc12 [Compound 40, 2-Thiazolecarboxaldehyde(7-methylthieno[3,2-d]pyrimidin-4-yl)hydrazone] | > 182 | –
CC=NNc1ncnc2c(C)csc12 [Compound 153, Ethanal(7-methylthieno[3,2-d]pyrimidin-4-yl)hydrazone] | > 242 | –
Cc1csc2c(NN=Cc3ccoc3)ncnc12 [Compound 38, 3-Furancarboxaldehyde(7-methylthieno[3,2-d]pyrimidin-4-yl)hydrazone] | > 194 | –
CSc1ccc(C=NNc2ncnc3c(C)csc23)cc1 [Compound 172, 4-(Methylthio)benzaldehyde(7-methylthieno[3,2-d]pyrimidin-4-yl)hydrazone] | > 159 | –
Cc1csc2c(NN=Cc3ccc(Br)cc3)ncnc12 [Compound 56] | > 144 | –
COc1cc(C(O)c2sc3c(NN=Cc4ccc(C(=O)O)cc4)ncnc3c2C)cc(OC)c1OC (stereo not shown) [Compound 480, 4-Carboxybenzaldehyde(6-(1-hydroxy-1-[3,4,5-trimethoxyphenyl])methyl-7-methylthieno[3,2-d]pyrimidin-4-yl)hydrazone] | – | IC50 (Csk; poly E4Y and 32P-ATP): > 98.3 µM
Cc1csc2c(NN=Cc3ccccc3Cl)ncnc12 [Compound 45, 2-Chlorobenzaldehyde(7-methylthieno[3,2-d]pyrimidin-4-yl)hydrazone] | > 165 | –
Cc1csc2c(NN=CC3CCCCC3)ncnc12 [Compound 25, Cyclohexanecarboxaldehyde(7-methylthieno[3,2-d]pyrimidin-4-yl)hydrazone] | > 182 | –
CCCOc1ccc(C=NNc2ncnc3c(C)csc23)cc1 [Compound 134, 4-Propoxybenzaldehyde(7-methylthieno[3,2-d]pyrimidin-4-yl)hydrazone] | > 153 | –
Cc1csc2c(NN=Cc3cccc([N+](=O)[O-])c3)ncnc12 [Compound 144] | > 160 | –
CCCCOc1cccc(C=NNc2ncnc3c(C)csc23)c1 [Compound 139] | > 147 | –
Cc1csc2c(NN=Cc3ccc(C(=O)O)cc3)ncnc12 [Compound 28, 4-Carboxybenzaldehyde(7-methylthieno[3,2-d]pyrimidin-4-yl)hydrazone] | > 160 | –
Cc1csc2c(NN=Cc3ccccn3)ncnc12 [Compound 26, 2-Pyridinecarboxaldehyde(7-methylthieno[3,2-d]pyrimidin-4-yl)hydrazone] | > 186 | –
Cc1csc2c(NN=Cc3ccc(F)cc3)ncnc12 [Compound 6, 4-Fluorobenzaldehyde(7-methylthieno[3,2-d]pyrimidin-4-yl)hydrazone] | > 175 | –
CCC=NNc1ncnc2c(C)csc12 [Compound 173, Propanal(7-methylthieno[3,2-d]pyrimidin-4-yl)hydrazone] | > 227 | –
Cc1csc2c(NN=Cc3ncc[nH]3)ncnc12 [Compound 34, 1H-Imidazole-2-carboxaldehyde(7-methylthieno[3,2-d]pyrimidin-4-yl)hydrazone] | > 194 | –
Cc1ccsc1C=NNc1ncnc2c(C)csc12 [Compound 119, 3-Methyl-2-thiophenecarboxaldehyde(7-methylthieno[3,2-d]pyrimidin-4-yl)hydrazone] | > 173 | –
CC(=O)Nc1ccc(C=NNc2ncnc3c(C)csc23)cc1 [Compound 20, 4-Acetamidobenzaldehyde(7-methylthieno[3,2-d]pyrimidin-4-yl)hydrazone] | > 154 | –
Cc1csc2c(NN=Cc3nccn3C)ncnc12 [Compound 101, 1-Methyl-1H-imidazole-2-carboxaldehyde(7-methylthieno[3,2-d]pyrimidin-4-yl)hydrazone] | > 184 | –
Cc1csc2c(NN=Cc3ccc(O)cc3)ncnc12 [Compound 10, 4-Hydroxybenzaldehyde(7-methylthieno[3,2-d]pyrimidin-4-yl)hydrazone] | > 176 | –

Continued, in another order:

IC50 (Csk; [3]) [µM] | Compound | also measured
> 168 | CCCc1csc2c(NN=Cc3cccnc3)ncnc12 [Compound 264, 3-Pyridinecarboxaldehyde(7-propylthieno[3,2-d]pyrimidin-4-yl)hydrazone] | IC50 (Recombinant human Src; [1]): ≤ 2 µM; IC50 (Recombinant human Src; [2]): < 2 µM
> 143 | Fc1ccc(-c2cc3ncnc(NN=Cc4cccnc4)c3s2)cc1 [Compound 278, 3-Pyridinecarboxaldehyde(6-(4-fluorophenyl)thieno[3,2-d]pyrimidin-4-yl)hydrazone] | IC50 (Recombinant human Src; [1]): ≤ 2 µM; IC50 (Recombinant human Src; [2]): < 2 µM
> 122 | CS(=O)(=O)c1ccc(-c2cc3ncnc(NN=Cc4cccnc4)c3s2)cc1 [Compound 290, 3-Pyridinecarboxaldehyde(6-(4-methanesulphonylphenyl)thieno-[3,2-d]pyrimidin-4-yl)hydrazone] | IC50 (Recombinant human Src; [1]): ≤ 2 µM; IC50 (Recombinant human Src; [2]): < 2 µM
> 133 | Cc1c(-c2ccc(CO)cc2)sc2c(NN=Cc3cccnc3)ncnc12 [Compound 436, 3-Pyridinecarboxaldehyde(6-(4-hydroxymethylphenyl)-7-methylthieno[3,2-d]pyrimidin-4-yl)hydrazone] | IC50 (Recombinant human Src; [1]): ≤ 2 µM; IC50 (Recombinant human Src; [2]): < 2 µM
> 140 | Cc1c(-c2ccsc2)sc2c(NN=Cc3cccs3)ncnc12 [Compound 381, 2-Thiopnhenecarboxaldehyde(7-methyl-6-(3-thienyl)thieno[3,2-d]pyrimidin-4-yl)hydrazone] | IC50 (Recombinant human Src; [1]): ≤ 2 µM; IC50 (Recombinant human Src; [2]): < 2 µM
> 137 | Clc1ccccc1-c1cc2ncnc(NN=Cc3cccnc3)c2s1 [Compound 317, 3-Pyridinecarboxaldehyde(6-(2-chlorophenyl)thieno[3,2-d]pyrimidin-4-yl)hydrazone] | IC50 (Recombinant human Src; [1]): ≤ 2 µM; IC50 (Recombinant human Src; [2]): < 2 µM
> 135 | Clc1ccc(-c2cc3ncnc(NN=Cc4cccs4)c3s2)cc1 [Compound 310] | –
> 131 | COc1ccc(-c2sc3c(NN=Cc4cccs4)ncnc3c2C)cc1 [Compound 424, 2-Thiophenecarboxaldehyde(6-(4-methoxyphenyl)-7-methylthieno[3,2-d]pyrimidin-4-yl)hydrazone] | –
> 125 | Cc1c(I)sc2c(NN=Cc3cccs3)ncnc12 [Compound 374, 2-Thiophenecarboxaldehyde(6-iodo-7-methylthieno[3,2-d]pyrimidin-4-yl)hydrazone] | –
> 129 | Ic1cc2ncnc(NN=Cc3cccs3)c2s1 [Compound 396, 2-Thiophenecarboxaldehyde(6-iodothieno[3,2-d]pyrimidin-4-yl)hydrazone] | –
> 213 | CCCC=NNc1ncnc2c(C)csc12 [Compound 174, Butanal(7-methylthieno[3,2-d]pyrimidin-4-yl)hydrazone] | –
> 215 | CC=CC=NNc1ncnc2c(C)csc12 [Compound 182, E-2-Butenal(7-methylthieno[3,2-d]pyrimidin-4-yl)hydrazone] | –
> 137 | Clc1ccc(-c2cc3ncnc(NN=Cc4cccnc4)c3s2)cc1 [Compound 308, 3-Pyridinecarboxaldehyde(6-(4-chlorophenyl)thieno[3,2-d]pyrimidin-4-yl)hydrazone] | –
> 137 | Clc1cccc(-c2cc3ncnc(NN=Cc4cccnc4)c3s2)c1 [Compound 304, 3-Pyridinecarboxaldehyde(6-(3-chlorophenyl)thieno[3,2-d]pyrimidin-4-yl)hydrazone] | –
> 136 | COc1ccc(-c2cc3ncnc(NN=Cc4cccs4)c3s2)cc1 [Compound 407, 2-Thiophenecarboxaldehyde(6-(4-methoxyphenyl)thieno[3,2-d]pyrimidin-4-yl)hydrazone] | –
> 151 | N#Cc1ccc(C=NNc2ncnc3c2sc2ncccc23)cc1 [Compound 248] | –
> 149 | C(=NNc1ncnc2cc(-c3ccccc3)sc12)c1cccs1 [Compound 253] | –
> 135 | Clc1cccc(-c2cc3ncnc(NN=Cc4cccs4)c3s2)c1 [Compound 306] | –
> 120 | COc1ccc(C=NNc2ncnc3c(C)c(/C=C/c4ccccc4)sc23)cc1O [Compound 450, 3-Hydroxy-4-methoxybenzaldehyde(7-methyl-6-(trans-2-phenylvinyl)-thieno[3,2-d]pyrimidin-4-yl)hydrazone] | –
> 184 | Cc1csc2c(NN=CC3CC=CCC3)ncnc12 (stereo not shown) [Compound 181, 3-Cyclohexene-1-carboxaldehyde(7-methylthieno[3,2-a]pyrimidin-4-yl)hydrazone] | –
> 160 | Cc1csc2c(NN=Cc3cccc(C(=O)O)c3)ncnc12 [Compound 249, 3-Carboxybenzaldehyde(7-methylthieno[3,2-d]pyrimidin-4-yl)hydrazone] | –
